Measurements: patent US20080227797A1, “Pyridopyrimidine Derivatives as Pde4 Inhibitors for the Treatment of Inflammatory and Immune Diseases” (ASTRAZENECA AB, priority 2005, published 2008)

Biological target: recombinant Human Phosphodiesterase B2 (PDE4B2) (Homo sapiens, UniProt Q07343)
Assay: Human Phosphodiesterase B2 Alpha Screen Assay
Assay type: biochemical
Details: cAMP substrate, Alpha Screen cAMP kit, 60 minutes at room temperature
Procedure: Human Phosphodiesterase B2 Alpha Screen Assay
The assay uses recombinant Human Phosphodiesterase B2 (PDE4B2) produced in house (PrAZL0133), stored at −20° C. The substrate uses cAMP, part of the Alpha Screen cAMP kit (Perkin Elmer, Cat# 6760625M), stored at 4° C. The Alpha Screen kit also includes biotinylated cAMP, acceptor and donor beads.
The assay additions were as follows: Test compounds and controls were added to white 384-well flat-bottom plates (Greiner, Cat# 781075), 0.2 μl in 100% DMSO, followed by 10 μl PDE4B2 in reaction buffer. The reaction buffer constitution was: 50 mM Tris (pH 7.5), 8.3 mM MgCl2, 1.7 mM EGTA and 0.01% (w/v) Brij®35. The enzyme and the compounds were incubated at room temperature for 15 minutes. Then 10 μl cAMP in reaction buffer was added. The assay was stopped after 60 minutes incubation at room temperature by adding 10 μl acceptor beads in detection buffer with 40 mM EDTA. The detection buffer constitution was: 5 mM Tris (pH 7.5), 0.1% (w/v) BSA and 0.1% (v/v) Tween 20. This addition followed by an addition of 10 μl donor beads in detection buffer, with biotinylated cAMP. The plates were then incubated, dark at room temperature, for 5 hours followed by measurement on a Fusion™-α analyser. IC50 values (presented in Table 1) were determined using Xlfit curve fitting using model 205.

recombinant Human Phosphodiesterase B2 (PDE4B2), sequence (Q07343 1-564 isoform Q07343-2): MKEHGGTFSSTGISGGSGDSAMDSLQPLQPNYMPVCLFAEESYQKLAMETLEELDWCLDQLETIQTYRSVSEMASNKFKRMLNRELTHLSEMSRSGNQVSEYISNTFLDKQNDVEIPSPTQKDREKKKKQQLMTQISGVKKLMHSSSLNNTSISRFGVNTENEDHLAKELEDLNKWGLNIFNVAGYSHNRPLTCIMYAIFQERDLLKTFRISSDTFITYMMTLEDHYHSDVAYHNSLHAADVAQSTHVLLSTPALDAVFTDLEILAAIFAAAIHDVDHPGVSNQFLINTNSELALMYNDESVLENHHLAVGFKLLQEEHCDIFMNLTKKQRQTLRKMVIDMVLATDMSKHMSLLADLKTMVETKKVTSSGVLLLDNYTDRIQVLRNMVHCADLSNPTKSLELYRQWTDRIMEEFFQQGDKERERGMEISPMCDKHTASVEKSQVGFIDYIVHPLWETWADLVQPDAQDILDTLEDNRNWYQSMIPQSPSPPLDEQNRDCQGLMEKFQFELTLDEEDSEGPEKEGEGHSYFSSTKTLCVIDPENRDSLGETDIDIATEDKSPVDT

Row | SMILES | IC50
1 | O=C(N[C@H]1CC[C@@H](n2c(=O)c3cc(F)cnc3n(-c3ccc(F)c(F)c3)c2=O)CC1)C(O)c1ccccc1 (relative stereo) [Example 2, N-{cis-4-[1-(3,4-difluorophenyl)-6-fluoro-2,4-dioxo-1,4-dihydropyrido[2,3-d]pyrimidin-3(2H)-yl]cyclohexyl}-2-hydroxy-2-phenylacetamide] | 0.9 nM
2 | O=C(N[C@H]1CC[C@@H](n2c(=O)c3cc(F)cnc3n(-c3ccc(F)c(F)c3)c2=O)CC1)c1cc(CO)ccc1O [Example 1, N-{cis-4-[1-(3,4-difluorophenyl)-6-fluoro-2,4-dioxo-1,4-dihydropyrido[2,3-d]pyrimidin-3(2H)-yl]cyclohexyl}-2-hydroxy-5-(hydroxymethyl)benzamide] | 4.9 nM
3 | O=C(CO)N[C@H]1CC[C@@H](n2c(=O)c3cc(F)cnc3n(-c3ccc(F)c(F)c3)c2=O)CC1 [Example 3, N-{cis-4-[1-(3,4-difluorophenyl)-6-fluoro-2,4-dioxo-1,4-dihydropyrido[2,3-d]pyrimidin-3(2H)-yl]cyclohexyl}-2-hydroxyacetamide] | 16.3 nM
4 | O=C(N[C@H]1CC[C@@H](n2c(=O)c3cc(F)cnc3n(-c3ccc(F)c(F)c3)c2=O)CC1)c1cc(Cl)ccc1O [Example 4, 5-chloro-N-{cis-4-[1-(3,4-difluorophenyl)-6-fluoro-2,4-dioxo-1,4-dihydropyrido[2,3-d]pyrimidin-3(2H)-yl]cyclohexyl}-2-hydroxybenzamide] | 5 nM
5 | O=C(N[C@H]1CC[C@@H](n2c(=O)c3cc(F)cnc3n(-c3ccc(F)c(F)c3)c2=O)CC1)c1cccc(O)c1 [Example 5, N-{cis-4-[1-(3,4-difluorophenyl)-6-fluoro-2,4-dioxo-1,4-dihydropyrido[2,3-d]pyrimidin-3(2H)-yl]cyclohexyl}-3-hydroxybenzamide] | 2.2 nM
6 | O=C(N[C@H]1CC[C@@H](n2c(=O)c3cc(F)cnc3n(-c3ccc(F)c(F)c3)c2=O)CC1)c1ccc(O)cc1 [Example 6, N-{cis-4-[1-(3,4-difluorophenyl)-6-fluoro-2,4-dioxo-1,4-dihydropyrido[2,3-d]pyrimidin-3(2H)-yl]cyclohexyl}-4-hydroxybenzamide] | 2.3 nM
7 | COC(=O)c1ccccc1C(=O)N[C@H]1CC[C@@H](n2c(=O)c3cc(F)cnc3n(-c3ccc(F)c(F)c3)c2=O)CC1 [Example 7, methyl 2-[({cis-4-[1-(3,4-difluorophenyl)-6-fluoro-2,4-dioxo-1,4-dihydropyrido[2,3-d]pyrimidin-3(2H)-yl]cyclohexyl}amino)carbonyl]benzoate] | 3 nM
8 | O=C(Cc1ccc(O)cc1)N[C@H]1CC[C@@H](n2c(=O)c3cc(F)cnc3n(-c3ccc(F)c(F)c3)c2=O)CC1 [Example 8, N-{cis-4-[1-(3,4-difluorophenyl)-6-fluoro-2,4-dioxo-1,4-dihydropyrido[2,3-d]pyrimidin-3(2H)-yl]cyclohexyl}-2-(4-hydroxyphenyl)acetamide] | 2.2 nM
9 | Cc1ccc(C(=O)N[C@H]2CC[C@@H](n3c(=O)c4cc(F)cnc4n(-c4ccc(F)c(F)c4)c3=O)CC2)c(O)c1 [Example 9, N-{cis-4-[1-(3,4-difluorophenyl)-6-fluoro-2,4-dioxo-1,4-dihydropyrido[2,3-d]pyrimidin-3(2H)-yl]cyclohexyl}-2-hydroxy-4-methylbenzamide] | 1.3 nM
10 | O=C(N[C@H]1CC[C@@H](n2c(=O)c3cc(F)cnc3n(-c3ccc(F)c(F)c3)c2=O)CC1)c1ccccc1O [Example 10, N-{cis-4-[1-(3,4-difluorophenyl)-6-fluoro-2,4-dioxo-1,4-dihydropyrido[2,3-d]pyrimidin-3(2H)-yl]cyclohexyl}-2-hydroxybenzamide] | 2.6 nM
11 | O=C(N[C@H]1CC[C@@H](n2c(=O)c3cc(F)cnc3n(-c3ccc(F)c(F)c3)c2=O)CC1)c1ncccc1O [Example 11, N-{cis-4-[1-(3,4-difluorophenyl)-6-fluoro-2,4-dioxo-1,4-dihydropyrido[2,3-d]pyrimidin-3(2H)-yl]cyclohexyl}-3-hydroxypyridine-2-carboxamide] | 3.4 nM
12 | O=C(N[C@H]1CC[C@@H](n2c(=O)c3cc(F)cnc3n(-c3ccc(F)c(F)c3)c2=O)CC1)c1ccc(O)c(Cl)c1 [Example 12, 3-chloro-N-{cis-4-[1-(3,4-difluorophenyl)-6-fluoro-2,4-dioxo-1,4-dihydropyrido[2,3-d]pyrimidin-3(2H)-yl]cyclohexyl}-4-hydroxybenzamide] | 2.2 nM

The next lines start with the values.

Row | IC50 | SMILES
13 | 129 nM | Cc1ccc(O)c(C(=O)N[C@H]2CC[C@@H](N3C(=O)c4cc(F)cnc4N(c4ccc(F)c(F)c4)[S+]3[O-])CC2)c1 (relative stereo) [Example 46, N-{cis-4-[1-(3,4-Difluorophenyl)-6-fluoro-2-oxido-4-oxo-1,4-dihydro-3H-pyrido[2,3-c][1,2,6]thiadiazin-3-yl]cyclohexyl}-2-hydroxy-5-methylbenzamide]
14 | 6.01 nM | CN1CCCC(C(=O)N[C@H]2CC[C@@H](n3c(=O)c4cc(F)cnc4n(-c4ccc(F)c(F)c4)c3=O)CC2)C1 (relative stereo) [Example 99, N-{cis-4-[1-(3,4-difluorophenyl)-6-fluoro-2,4-dioxo-1,4-dihydropyrido[2,3-d]pyrimidin-3(2H)-yl]cyclohexyl}-1-methylpiperidine-3-carboxamide]
15 | 3.2 nM | Cc1c(O)cccc1C(=O)N[C@H]1CC[C@@H](n2c(=O)c3cc(F)cnc3n(-c3ccc(F)c(F)c3)c2=O)CC1 [Example 13, N-{cis-4-[1-(3,4-difluorophenyl)-6-fluoro-2,4-dioxo-1,4-dihydropyrido[2,3-d]pyrimidin-3(2H)-yl]cyclohexyl}-3-hydroxy-2-methylbenzamide]
16 | 1.5 nM | COc1cc(C(=O)N[C@H]2CC[C@@H](n3c(=O)c4cc(F)cnc4n(-c4ccc(F)c(F)c4)c3=O)CC2)ccc1O [Example 14, N-{cis-4-[1-(3,4-difluorophenyl)-6-fluoro-2,4-dioxo-1,4-dihydropyrido[2,3-d]pyrimidin-3(2H)-yl]cyclohexyl}-4-hydroxy-3-methoxybenzamide]
17 | 1.3 nM | Cc1ccc(C(=O)N[C@H]2CC[C@@H](n3c(=O)c4cc(F)cnc4n(-c4ccc(F)c(F)c4)c3=O)CC2)cc1O [Example 15, N-{cis-4-[1-(3,4-difluorophenyl)-6-fluoro-2,4-dioxo-1,4-dihydropyrido[2,3-d]pyrimidin-3(2H)-yl]cyclohexyl}-3-hydroxy-4-methylbenzamide]
18 | 2.1 nM | COc1cccc(O)c1C(=O)N[C@H]1CC[C@@H](n2c(=O)c3cc(F)cnc3n(-c3ccc(F)c(F)c3)c2=O)CC1 [Example 16, N-{cis-4-[1-(3,4-difluorophenyl)-6-fluoro-2,4-dioxo-1,4-dihydropyrido[2,3-d]pyrimidin-3(2H)-yl]cyclohexyl}-2-hydroxy-6-methoxybenzamide]
19 | 1.8 nM | COc1cccc(C(=O)N[C@H]2CC[C@@H](n3c(=O)c4cc(F)cnc4n(-c4ccc(F)c(F)c4)c3=O)CC2)c1O [Example 17, N-{cis-4-[1-(3,4-difluorophenyl)-6-fluoro-2,4-dioxo-1,4-dihydropyrido[2,3-d]pyrimidin-3(2H)-yl]cyclohexyl}-2-hydroxy-3-methoxybenzamide]
20 | 2.7 nM | O=C(N[C@H]1CC[C@@H](n2c(=O)c3cc(F)cnc3n(-c3ccc(F)c(F)c3)c2=O)CC1)c1ccc(Cl)cc1O [Example 18, 4-chloro-N-{cis-4-[1-(3,4-difluorophenyl)-6-fluoro-2,4-dioxo-1,4-dihydropyrido[2,3-d]pyrimidin-3(2H)-yl]cyclohexyl}-2-hydroxybenzamide]
21 | 2 nM | COc1ccc(C(=O)N[C@H]2CC[C@@H](n3c(=O)c4cc(F)cnc4n(-c4ccc(F)c(F)c4)c3=O)CC2)c(O)c1 [Example 19, N-{cis-4-[1-(3,4-difluorophenyl)-6-fluoro-2,4-dioxo-1,4-dihydropyrido[2,3-d]pyrimidin-3(2H)-yl]cyclohexyl}-2-hydroxy-4-methoxybenzamide]
22 | 3.6 nM | O=C(N[C@H]1CC[C@@H](n2c(=O)c3cc(F)cnc3n(-c3ccc(F)c(F)c3)c2=O)CC1)c1cc(F)ccc1O [Example 20, N-{cis-4-[1-(3,4-difluorophenyl)-6-fluoro-2,4-dioxo-1,4-dihydropyrido[2,3-d]pyrimidin-3(2H)-yl]cyclohexyl}-5-fluoro-2-hydroxybenzamide]
23 | 3.6 nM | CC(C)C[C@H](O)C(=O)N[C@H]1CC[C@@H](n2c(=O)c3cc(F)cnc3n(-c3ccc(F)c(F)c3)c2=O)CC1 [Example 21, (2S)-N-{cis-4-[1-(3,4-difluorophenyl)-6-fluoro-2,4-dioxo-1,4-dihydropyrido[2,3-d]pyrimidin-3(2H)-yl]cyclohexyl}-2-hydroxy-4-methylpentanamide]
24 | 1 nM | O=C(N[C@H]1CC[C@@H](n2c(=O)c3cc(F)cnc3n(-c3ccc(F)c(F)c3)c2=O)CC1)[C@H](O)C1CCCCC1 [Example 22, (2R)-2-cyclohexyl-N-{cis-4-[1-(3,4-difluorophenyl)-6-fluoro-2,4-dioxo-1,4-dihydropyrido[2,3-d]pyrimidin-3(2H)-yl]cyclohexyl}-2-hydroxyacetamide]
25 | 3.8 nM | COC(=O)CCC(=O)N[C@H]1CC[C@@H](n2c(=O)c3cc(F)cnc3n(-c3ccc(F)c(F)c3)c2=O)CC1 [Example 23, methyl 4-({cis-4-[1-(3,4-difluorophenyl)-6-fluoro-2,4-dioxo-1,4-dihydropyrido[2,3-d]pyrimidin-3(2H)-yl]cyclohexyl}amino)-4-oxobutanoate]
